Where a SMILES comes first, the peptide text is derived from it. Bridges are numbered along the chain shown (N, C = ends). [ ]: non-standard residue; d: D form. The star is where a group is joined. ξ: configuration not given here. Phe(4-CONH2) = NC(=O)c1ccc(C[C@H](N)C(=O)O)cc1; Phe(4-COOH) = N[C@@H](Cc1ccc(C(=O)O)cc1)C(=O)O; Bip = N[C@@H](Cc1ccc(-c2ccccc2)cc1)C(=O)O; Phe(3-CN) = N#Cc1cccc(C[C@H](N)C(=O)O)c1; Phe(3-Me) = Cc1cccc(C[C@H](N)C(=O)O)c1; Val(3-OH) = CC(C)(O)[C@H](N)C(=O)O; 4Pal = N[C@@H](Cc1ccncc1)C(=O)O; 2Thi = N[C@@H](Cc1cccs1)C(=O)O; 3Thi = N[C@@H](Cc1ccsc1)C(=O)O; Cha = N[C@@H](CC1CCCCC1)C(=O)O; Cit = NC(=O)NCCC[C@H](N)C(=O)O; Thr(3ξ) = CC(O)[C@H](N)C(=O)O; Carboxymethyl = O=C(O)C*; Orn = NCCC[C@H](N)C(=O)O; Dab = NCC[C@H](N)C(=O)O

The target of the experiment is T1, human PD-1 / PD-L1-Ig binding on Jurkat cell line over-expressing human PD-1 (Jurkat-PD-1) (Homo sapiens, UniProt Q15116).
T1 construct: expressed in transfected cells; host or cells: Jurkat
T1 sequence (Q15116 25-288): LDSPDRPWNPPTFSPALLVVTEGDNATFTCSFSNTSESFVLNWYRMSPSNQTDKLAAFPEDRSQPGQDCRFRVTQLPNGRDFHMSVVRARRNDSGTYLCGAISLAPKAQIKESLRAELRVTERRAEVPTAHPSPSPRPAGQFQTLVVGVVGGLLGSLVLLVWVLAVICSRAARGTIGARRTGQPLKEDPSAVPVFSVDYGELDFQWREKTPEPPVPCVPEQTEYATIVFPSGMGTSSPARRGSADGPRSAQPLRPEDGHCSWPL
Put plainly: Jurkat-PD-1 Cell Binding High-Content Screening Assay (CBA). Type of experiment: cell-based. To be noted: Jurkat-PD-1 cells, PE-labeled PD-L1-Ig 20 nM final; read-out: Jurkat HPD1_PDL1 IC50. In short, it runs like this: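 Jurkat cells over-expressing human PD-1, in DMEM/10% FCS, pre-incubated with compound 2 h at 37° C. PE-labeled human PD-L1-Ig (20 nM final) added for 1 h; cells fixed in paraformaldehyde with Hoechst 33342 nuclear stain, washed, and bound fluorescence quantified by high-content imaging.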
Take `Cc1cccc(C[C@@H]2NC(=O)[C@H](CC(=O)O)NC(=O)[C@H](Cc3ccc(OCC(=O)O)cc3)NC(=O)[C@H](Cc3ccsc3)NC(=O)CSC[C@@H](C(=O)N[C@@H](CCN)C(N)=O)NC(=O)[C@H](CO)NC(=O)[C@H](C(C)(C)O)NC(=O)[C@H](CC3CCCCC3)NC(=O)[C@H](CCN)NC(=O)[C@@H](CC(C)C)NC(=O)[C@H](CCCN)NC(=O)[C@H](Cc3ccc(OCC(=O)O)cc3)NC(=O)[C@H](Cc3ccc(-c4ccccc4)cc3)NC(=O)[C@H](Cc3ccc(OCC(=O)O)cc3)NC2=O)c1` [Compound 2615] ({CH2CO}-[3Thi]Y(Carboxymethyl)D[Phe(3-Me)]Y(Carboxymethyl)[Bip]Y(Carboxymethyl)[Orn][dL][Dab][Cha][Val(3-OH)]SC[Dab]-NH2; thioether N-14): the concentration for half-maximal inhibition (IC50) (usually the midpoint of a concentration-inhibition curve) was found to be 3.7 nM.
For `Cc1cccc(C[C@@H]2NC(=O)[C@H](CC(=O)O)NC(=O)[C@H](Cc3ccc(C(=O)O)cc3)NC(=O)[C@H](Cc3ccsc3)NC(=O)CSC[C@@H](C(=O)N[C@@H](CCN)C(N)=O)NC(=O)[C@H](CO)NC(=O)[C@H](C(C)(C)O)NC(=O)[C@H](CC3CCCCC3)NC(=O)[C@H](CCN)NC(=O)[C@@H](CC(C)C)NC(=O)[C@H](CCCN)NC(=O)[C@H](Cc3ccc(OCC(=O)O)cc3)NC(=O)[C@H](Cc3ccc(-c4ccccc4)cc3)NC(=O)[C@H](Cc3ccc(OCC(=O)O)cc3)NC2=O)c1` [Compound 2617] ({CH2CO}-[3Thi][Phe(4-COOH)]D[Phe(3-Me)]Y(Carboxymethyl)[Bip]Y(Carboxymethyl)[Orn][dL][Dab][Cha][Val(3-OH)]SC[Dab]-NH2; thioether N-14) the value was 3.1 nM; for `Cc1cccc(C[C@@H]2NC(=O)[C@H](CC(=O)O)NC(=O)[C@H](Cc3ccc(C(=O)O)cc3)NC(=O)[C@H](Cc3ccncc3)NC(=O)CSC[C@@H](C(=O)N[C@@H](CCN)C(N)=O)NC(=O)[C@H](CO)NC(=O)[C@H](C(C)(C)O)NC(=O)[C@H](CC3CCCCC3)NC(=O)[C@H](CCN)NC(=O)[C@@H](CC(C)C)NC(=O)[C@H](CCCN)NC(=O)[C@H](Cc3ccc(OCC(=O)O)cc3)NC(=O)[C@H](Cc3ccc(-c4ccccc4)cc3)NC(=O)[C@H](Cc3ccc(OCC(=O)O)cc3)NC2=O)c1` [Compound 2622] ({CH2CO}-[4Pal][Phe(4-COOH)]D[Phe(3-Me)]Y(Carboxymethyl)[Bip]Y(Carboxymethyl)[Orn][dL][Dab][Cha][Val(3-OH)]SC[Dab]-NH2; thioether N-14), 2.7 nM; for `Cc1cccc(C[C@@H]2NC(=O)[C@H](CC(=O)O)NC(=O)[C@H](Cc3ccc(OCC(=O)O)cc3)NC(=O)[C@H](Cc3ccncc3)NC(=O)CSC[C@@H](C(=O)N[C@@H](CCN)C(N)=O)NC(=O)[C@H](CO)NC(=O)[C@H](C(C)(C)O)NC(=O)[C@H](CC3CCCCC3)NC(=O)[C@H](CCN)NC(=O)[C@@H](CC(C)C)NC(=O)[C@H](CCCN)NC(=O)[C@H](Cc3ccc(O)cc3)NC(=O)[C@H](Cc3ccc(-c4ccccc4)cc3)NC(=O)[C@H](Cc3ccc(C(N)=O)cc3)NC2=O)c1` [Compound 2623] ({CH2CO}-[4Pal]Y(Carboxymethyl)D[Phe(3-Me)][Phe(4-CONH2)][Bip]Y[Orn][dL][Dab][Cha][Val(3-OH)]SC[Dab]-NH2; thioether N-14), 4.6 nM.
For `Cc1cccc(C[C@@H]2NC(=O)[C@H](CC(=O)O)NC(=O)[C@H](Cc3ccc(C(=O)O)cc3)NC(=O)[C@H](Cc3ccncc3)NC(=O)CSC[C@@H](C(=O)N[C@@H](CCN)C(N)=O)NC(=O)[C@H](CO)NC(=O)[C@H](C(C)(C)O)NC(=O)[C@H](CC3CCCCC3)NC(=O)[C@H](CCN)NC(=O)[C@@H](CC(C)C)NC(=O)[C@H](CCCN)NC(=O)[C@H](Cc3ccc(OCC(=O)O)cc3)NC(=O)[C@H](Cc3ccc(-c4ccccc4)cc3)NC(=O)[C@H](Cc3ccc(C(=O)O)cc3)NC2=O)c1` [Compound 2624] ({CH2CO}-[4Pal][Phe(4-COOH)]D[Phe(3-Me)][Phe(4-COOH)][Bip]Y(Carboxymethyl)[Orn][dL][Dab][Cha][Val(3-OH)]SC[Dab]-NH2; thioether N-14) the value was 5.7 nM; for `Cc1cccc(C[C@@H]2NC(=O)[C@H](CC(=O)O)NC(=O)[C@H](Cc3ccc(C(=O)O)cc3)NC(=O)[C@H](Cc3cccs3)NC(=O)CSC[C@@H](C(=O)N[C@@H](CCN)C(N)=O)NC(=O)[C@H](CO)NC(=O)[C@H](C(C)(C)O)NC(=O)[C@H](CC3CCCCC3)NC(=O)[C@H](CCN)NC(=O)[C@@H](CC(C)C)NC(=O)[C@H](CCCN)NC(=O)[C@H](Cc3ccc(OCC(=O)O)cc3)NC(=O)[C@H](Cc3ccc(-c4ccccc4)cc3)NC(=O)[C@H](Cc3ccc(C(=O)O)cc3)NC2=O)c1` [Compound 2625] ({CH2CO}-[2Thi][Phe(4-COOH)]D[Phe(3-Me)][Phe(4-COOH)][Bip]Y(Carboxymethyl)[Orn][dL][Dab][Cha][Val(3-OH)]SC[Dab]-NH2; thioether N-14), 5.7 nM; for `Cc1cccc(C[C@@H]2NC(=O)[C@H](CC(=O)O)NC(=O)[C@H](Cc3cccc(C#N)c3)NC(=O)[C@H](Cc3ccncc3)NC(=O)CSC[C@@H](C(=O)N[C@@H](CCN)C(N)=O)NC(=O)[C@H](CO)NC(=O)[C@H](C(C)(C)O)NC(=O)[C@H](CC3CCCCC3)NC(=O)[C@H](CCN)NC(=O)[C@@H](CC(C)C)NC(=O)[C@H](CCCN)NC(=O)[C@H](Cc3ccc(OCC(=O)O)cc3)NC(=O)[C@H](Cc3ccc(-c4ccccc4)cc3)NC(=O)[C@H](Cc3ccc(C(=O)O)cc3)NC2=O)c1` [Compound 2626] ({CH2CO}-[4Pal][Phe(3-CN)]D[Phe(3-Me)][Phe(4-COOH)][Bip]Y(Carboxymethyl)[Orn][dL][Dab][Cha][Val(3-OH)]SC[Dab]-NH2; thioether N-14), 10.7 nM.
For `Cc1cccc(C[C@@H]2NC(=O)[C@H](CC(=O)O)NC(=O)[C@H](Cc3ccc(C(N)=O)cc3)NC(=O)[C@H](Cc3ccncc3)NC(=O)CSC[C@@H](C(=O)N[C@@H](CCN)C(N)=O)NC(=O)[C@H](CO)NC(=O)[C@H](C(C)(C)O)NC(=O)[C@H](CC3CCCCC3)NC(=O)[C@H](CCN)NC(=O)[C@@H](CC(C)C)NC(=O)[C@H](CCCN)NC(=O)[C@H](Cc3ccc(OCC(=O)O)cc3)NC(=O)[C@H](Cc3ccc(-c4ccccc4)cc3)NC(=O)[C@H](Cc3ccc(C(=O)O)cc3)NC2=O)c1` [Compound 2627] ({CH2CO}-[4Pal][Phe(4-CONH2)]D[Phe(3-Me)][Phe(4-COOH)][Bip]Y(Carboxymethyl)[Orn][dL][Dab][Cha][Val(3-OH)]SC[Dab]-NH2; thioether N-14) the value was 5 nM; for `Cc1cccc(C[C@@H]2NC(=O)[C@H](CC(=O)O)NC(=O)[C@H](Cc3ccc(OCC(=O)O)cc3)NC(=O)[C@H](Cc3ccncc3)NC(=O)CSC[C@@H](C(=O)N[C@H](CC(N)=O)C(N)=O)NC(=O)[C@H](CO)NC(=O)[C@H](C(C)(C)O)NC(=O)[C@H](CC3CCCCC3)NC(=O)[C@H](CCN)NC(=O)[C@@H](CC(C)C)NC(=O)[C@H](CCCN)NC(=O)[C@H](Cc3ccc(OCC(=O)O)cc3)NC(=O)[C@H](Cc3ccc(-c4ccccc4)cc3)NC(=O)[C@H](Cc3ccc(C(=O)O)cc3)NC2=O)c1` [Compound 2628] ({CH2CO}-[4Pal]Y(Carboxymethyl)D[Phe(3-Me)][Phe(4-COOH)][Bip]Y(Carboxymethyl)[Orn][dL][Dab][Cha][Val(3-OH)]SC[dN]-NH2; thioether N-14), 20.6 nM; for `CC(C)C[C@H]1NC(=O)[C@H](CCCN)NC(=O)[C@H](C(C)C)NC(=O)[C@H](Cc2ccc(-c3ccccc3)cc2)NC(=O)[C@H](C(C)C)NC(=O)[C@H](Cc2c[nH]c3ccccc23)NC(=O)[C@H](CC(=O)O)NC(=O)[C@H](Cc2ccc(OCC(=O)O)cc2)NC(=O)[C@H](Cc2ccncc2)NC(=O)CSC[C@@H](C(=O)N[C@@H](CCN)C(N)=O)NC(=O)[C@H](C(C)O)NC(=O)[C@H](C(C)(C)O)NC(=O)[C@H](CC2CCCCC2)NC(=O)[C@H](CCN)NC1=O` (stereo partly drawn) [Compound 2629] ({CH2CO}-[4Pal]Y(Carboxymethyl)DWV[Bip]V[Orn][dL][Dab][Cha][Val(3-OH)][Thr(3ξ)]C[Dab]-NH2; thioether N-14), 10.6 nM.
As for `Cc1cccc(C[C@@H]2NC(=O)[C@H](CC(=O)O)NC(=O)[C@H](Cc3ccc(OCC(=O)O)cc3)NC(=O)[C@H](Cc3ccncc3)NC(=O)CSC[C@@H](C(=O)N[C@@H](CCN)C(N)=O)NC(=O)[C@H](C(C)O)NC(=O)[C@H](C(C)(C)O)NC(=O)[C@H](CC3CCCCC3)NC(=O)[C@H](CCN)NC(=O)[C@@H](CC(C)C)NC(=O)[C@H](CCCN)NC(=O)[C@H](CCCNC(N)=O)NC(=O)[C@H](Cc3ccc(-c4ccccc4)cc3)NC(=O)[C@H](C(C)C)NC2=O)c1` (stereo partly drawn) [Compound 2630] ({CH2CO}-[4Pal]Y(Carboxymethyl)D[Phe(3-Me)]V[Bip][Cit][Orn][dL][Dab][Cha][Val(3-OH)][Thr(3ξ)]C[Dab]-NH2; thioether N-14), the 50% inhibitory concentration (IC50) was determined as 12.3 nM.
In the case of `CC(C)C[C@H]1NC(=O)[C@H](CCCN)NC(=O)[C@H](C(C)C)NC(=O)[C@H](Cc2ccc(-c3ccccc3)cc2)NC(=O)[C@H](C(C)C)NC(=O)[C@H](Cc2c[nH]c3ccccc23)NC(=O)[C@H](CC(=O)O)NC(=O)[C@H](Cc2ccc(OCC(=O)O)cc2)NC(=O)[C@H](C(C)O)NC(=O)CSC[C@@H](C(=O)N[C@@H](CCN)C(N)=O)NC(=O)[C@H](C(C)O)NC(=O)[C@H](C(C)(C)O)NC(=O)[C@H](CC2CCCCC2)NC(=O)[C@H](CCN)NC1=O` (stereo partly drawn) [Compound 2631] ({CH2CO}-[Thr(3ξ)]Y(Carboxymethyl)DWV[Bip]V[Orn][dL][Dab][Cha][Val(3-OH)][Thr(3ξ)]C[Dab]-NH2; thioether N-14), the 50% inhibitory concentration (IC50) was 8.5 nM.
Consider `Cc1cccc(C[C@@H]2NC(=O)[C@H](CC(=O)O)NC(=O)[C@H](Cc3ccc(OCC(=O)O)cc3)NC(=O)[C@H](C(C)O)NC(=O)CSC[C@@H](C(=O)N[C@@H](CCN)C(N)=O)NC(=O)[C@H](C(C)O)NC(=O)[C@H](C(C)(C)O)NC(=O)[C@H](CC3CCCCC3)NC(=O)[C@H](CCN)NC(=O)[C@@H](CC(C)C)NC(=O)[C@H](CCCN)NC(=O)[C@H](CCCNC(N)=O)NC(=O)[C@H](Cc3ccc(-c4ccccc4)cc3)NC(=O)[C@H](C(C)C)NC2=O)c1` (stereo partly drawn) [Compound 2632] ({CH2CO}-[Thr(3ξ)]Y(Carboxymethyl)D[Phe(3-Me)]V[Bip][Cit][Orn][dL][Dab][Cha][Val(3-OH)][Thr(3ξ)]C[Dab]-NH2; thioether N-14), for which the concentration for half-maximal inhibition (IC50) was 8.8 nM.
